Key:
Format in all cases: biochemical
[1] = target: T1, Steely1 C-terminal type III PKS domain (Dictyostelium discoideum, UniProt Q55E72); test: In vitro polyketide extension assay with [14-C]malonyl-CoA and CoA-linked starters, TLC/autoradiography; conditions: heterologously expressed domain, radiolabeled malonyl-CoA extender
T1 construct: poly-histidine (pHIS-8 vector, thrombin-cleavable) (N); made in house; host or cells: E. coli BL21(DE3) or CodonPlus (Stratagene)
T1 sequence (Q55E72 2776-3147): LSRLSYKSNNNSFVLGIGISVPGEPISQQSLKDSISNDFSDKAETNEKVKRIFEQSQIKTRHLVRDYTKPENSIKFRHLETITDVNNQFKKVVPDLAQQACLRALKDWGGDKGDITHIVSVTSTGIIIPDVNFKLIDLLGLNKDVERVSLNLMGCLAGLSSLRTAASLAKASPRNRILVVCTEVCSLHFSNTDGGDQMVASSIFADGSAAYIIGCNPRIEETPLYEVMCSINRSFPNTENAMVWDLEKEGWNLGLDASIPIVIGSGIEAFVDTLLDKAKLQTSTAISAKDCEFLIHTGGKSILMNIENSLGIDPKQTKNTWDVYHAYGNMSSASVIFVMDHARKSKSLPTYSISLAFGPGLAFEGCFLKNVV
Protocol: (§1) These differences in in vitro starter specificity are consistent with the substantial divergence of these steely active site predicted by homology modeling.
(§2) Standard 100 μL in vitro assays of heterologously expressed Steely C-terminal domains using [14-C]malonyl-CoA and various CoA-linked starters were conducted, extracted with ethyl acetate, analyzed by reverse-phase TLC, and visualized by autoradiography as previously reported.

[2] = target: T2, Steely2 C-terminal type III PKS domain (Dictyostelium discoideum, UniProt Q54FI3); test: as above; conditions: heterologously expressed domain, radiolabeled malonyl-CoA extender
T2 construct: poly-histidine (pHIS-8 vector, thrombin-cleavable) (N); made in house; host or cells: E. coli BL21(DE3) or CodonPlus (Stratagene)
T2 sequence (Q54FI3 2595-2968): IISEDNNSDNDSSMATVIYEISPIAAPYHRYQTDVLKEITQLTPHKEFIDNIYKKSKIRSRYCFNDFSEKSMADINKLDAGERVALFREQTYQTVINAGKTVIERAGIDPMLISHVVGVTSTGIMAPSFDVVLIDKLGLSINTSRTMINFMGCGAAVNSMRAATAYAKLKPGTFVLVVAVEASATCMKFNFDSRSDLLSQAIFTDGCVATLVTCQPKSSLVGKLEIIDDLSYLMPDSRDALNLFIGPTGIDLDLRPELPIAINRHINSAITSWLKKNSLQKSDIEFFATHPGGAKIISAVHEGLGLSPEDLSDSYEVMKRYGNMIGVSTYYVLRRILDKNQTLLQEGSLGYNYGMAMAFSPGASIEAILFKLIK
Protocol: as §1, §2

[3] = target: T3, Steely1 type III PKS domain (Dictyostelium discoideum, UniProt Q55E72); test: HPLC-MS-MS analysis of in vitro assays with unlabeled malonyl-CoA; conditions: overnight, Bis-Tris Propane pH 7.0
T3 construct: poly-histidine (pHIS-8 vector, thrombin-cleavable) (N); made in house; host or cells: E. coli BL21(DE3) or CodonPlus (Stratagene)
T3 sequence (Q55E72 2776-3147): T1 sequence (Q55E72 2776-3147)
Protocol: (§3) The related D. discoideum DIF-2 acylphloroglucinol scaffold seems to be derived from a pentanoyl intermediate. Therefore, in vitro assays of each steely C-terminal domain were also primed with butanoyl-CoA (12), as pentanoyl-CoA is not commercially available.
(§4) For HPLC-MS-MS analyses 25 μl injections of similarly prepared overnight reactions (but without organic extraction) buffered with 100 mM Bis-Tris Propane (pH 7.0), using unlabeled malonyl-CoA, were used. LC-MS-MS analyses were carried out on an Agilent 1100 HPLC with an integrated Agilent LC/MSD Trap XCT ion trap mass spectrometer, using a reversed-phase C18 column (4.6×150 mm; Gemini) maintained at 30° C. A gradient mobile phase ramped from 5% to 100% acetonitrile in water (with each solvent containing 0.1% v/v formic acid) between minutes 3 and 13 of a 25-min run using a flow rate of 0.5 ml min^−1 and a 0.1 ml min^−1 post column injection of 20 mM ammonium acetate in water. UV absorbance was monitored at 286 nm.
(§5) PCP was identified by direct HPLC-MS-MS comparison with an authentic synthetic standard, kindly provided by S. Horinouchi and N. Funa. Other hexanoyl- and butanoyl-primed enzymatic products were identified by comparing their relative HPLC elution times and negative MS-MS fragmentation patterns with previously published LC-MS-MS analyses of authentic standards (Funa et al. (2002) “Properties and substrate specificity of RppA, a chalcone synthase-related polyketide synthase in Streptomyces griseus” J Biol Chem 277:4628-4635). EICs with parent ion masses of plausible polyketide products were used to detect trace amounts of minor enzymatic products, but only triketide and tetraketide products were observed.

[4] = target: T4, Steely2 type III PKS domain (Dictyostelium discoideum, UniProt Q54FI3); test: as above; conditions: overnight, Bis-Tris Propane pH 7.0
T4 construct: poly-histidine (pHIS-8 vector, thrombin-cleavable) (N); made in house; host or cells: E. coli BL21(DE3) or CodonPlus (Stratagene)
T4 sequence (Q54FI3 2595-2968): T2 sequence (Q54FI3 2595-2968)
Protocol: as §3, §4, §5

| SMILES | polyketide extension activity with the substance as starter [1] | polyketide extension activity with the substance as starter [2] | enzymatic products of starter-primed assay [3] | enzymatic products of starter-primed assay [4] |
| --- | --- | --- | --- | --- |
| CC(=O)SCCNC(=O)CCNC(=O)[C@H](O)C(C)(C)COP(=O)(O)OP(=O)(O)OC[C@H]1O[C@@H](n2cnc3c(N)ncnc32)[C@H](O)[C@@H]1OP(=O)(O)O [acetyl-CoA] | Neither enzyme showed significant polyketide extension activity | Neither enzyme showed significant polyketide extension activity | – | – |
| CCCC(=O)SCCNC(=O)CCNC(=O)[C@H](O)C(C)(C)COP(=O)(O)OP(=O)(O)OC[C@H]1O[C@@H](n2cnc3c(N)ncnc32)[C@H](O)[C@@H]1OP(=O)(O)O [butanoyl-CoA] | – | – | no effect on the cyclization fate | no effect on the cyclization fate |
| CCCCCC(=O)SCCNC(=O)CCNC(=O)[C@H](O)C(C)(C)COP(=O)(O)OP(=O)(O)OC[C@H]1O[C@@H](n2cnc3c(N)ncnc32)[C@H](O)[C@@H]1OP(=O)(O)O [hexanoyl-CoA] | catalyze iterative polyketide extension | catalyze iterative polyketide extension | produced only triketide (10) and tetraketide (11) lactonization-derived pyrones | catalyzes three rounds of polyketide chain extension and the final CHS-like intramolecular C6 to C1 Claisen condensation |
| CC(C)CC(=O)SCCNC(=O)CCNC(=O)[C@H](O)C(C)(C)COP(=O)(O)OP(=O)(O)OC[C@H]1O[C@@H](n2cnc3c(N)ncnc32)[C@H](O)[C@@H]1OP(=O)(O)O [isovaleryl-CoA] | not Steely1 would accept | would accept | – | – |
| CC(C)(COP(=O)(O)OP(=O)(O)OC[C@H]1O[C@@H](n2cnc3c(N)ncnc32)[C@H](O)[C@@H]1OP(=O)(O)O)[C@@H](O)C(=O)NCCC(=O)NCCSC(=O)CC(=O)O [malonyl-CoA] | Neither enzyme showed significant polyketide extension activity | Neither enzyme showed significant polyketide extension activity | – | – |
| CCCCCCCC(=O)SCCNC(=O)CCNC(=O)[C@H](O)C(C)(C)COP(=O)(O)OP(=O)(O)OC[C@H]1O[C@@H](n2cnc3c(N)ncnc32)[C@H](O)[C@@H]1OP(=O)(O)O [octanoyl-CoA] | accepted | only Steely1 accepted | – | – |
| CC(C)(COP(=O)(O)OP(=O)(O)OC[C@H]1O[C@@H](n2cnc3c(N)ncnc32)[C@H](O)[C@@H]1OP(=O)(O)O)[C@@H](O)C(=O)NCCC(=O)NCCSC(=O)/C=C/c1ccc(O)cc1 [p-coumaroyl-CoA] | Neither enzyme showed significant polyketide extension activity | Neither enzyme showed significant polyketide extension activity | – | – |

Source: patent publication US20120122180A1, “INC[…] TYPE III […] INTO M[…] OF THE TYPE I AND III […] AND FATTY ACID SYNTHASE FAMILIES” (Salk Institute for Biological Studies, priority 2006, published 2012)
